The target of one assay is T1, TNKS2 ARC5 (Homo sapiens, UniProt Q9H2K2).
T1 construct: followed by TNKS2 ARC5 (1 μL, 100 μM stock); His6-GST; made in house; host or cells: E. coli
In words: Differential scanning fluorimetry (DSF, thermal shift). It counts as binding. The following applies: fragment 500 μM, 5% DMSO. Here is the method: Therefore, we chose TNKS2 ARC5 for screening by DSF, anticipating the largest signal window for measuring changes in Tm upon fragment binding.
We screened 1869 compounds in duplicate at a concentration of 500 μM, which we considered a reasonable compromise between having a sufficiently high concentration to identify weak binders while minimising the likelihood of false positives through fragment precipitation/aggregation and non-specific binding. The final DMSO concentration was 5%. We calculated melting temperatures using both the inflection point and the maximum peak of first derivative data methods. Both methods generally agreed, unless the melt curve was biphasic or misshapen, with slightly lower variability for the […] Tm determination method (see Materials and Methods for experimental and analysis details).
We determined the melting temperature for the unbound ARC (Tm, 0) from the mean of 12 reference melting curves per plate, with 5% DMSO only. We calculated the change in melting temperature (ΔTm) by subtracting the mean Tm, 0 from Tm, compound. We tested compounds in duplicate, defining fragments as hits if they conferred a ΔTm outside two standard deviations (2σ) from the mean, in one or both replicates. To check for consistency between plates, we ran triplicate peptide controls; however, we excluded peptide ΔTm values from the calculation of the mean ΔTm to avoid skewing the results. We observed mean ΔTm values (IP/1st derivative methods) of −0.127/−0.331 °C and σ as 0.997/1.19 °C. A hit cut-off of 2σ gave absolute shifts of +1.87/+2.05 °C for compounds that stabilised and −2.13/−2.71 °C for compounds that destabilised the ARC (Fig. 2B).
For the screen, a C1000 thermal cycler (Bio-Rad) was used to record melt curves. SYPRO Orange was purchased as a 5000 × stock in DMSO from Sigma Aldrich. The ICR fragment library was available as 100 mM stocks in DMSO, and dispensed (25 nL) using an ECHO acoustic liquid handling system into white 384-well PCR plates (Framestar, 4titude). Wells were backfilled with DMSO (225 nL). Buffer (2.75 μL, 25 mM HEPES-NaOH pH 7.5, 100 mM NaCl, 2 mM TCEP) was added, followed by TNKS2 ARC5 (1 μL, 100 μM stock) and then SYPRO orange dye (1 μL, 25×). The plate was centrifuged after the addition of each reagent (1 min, 1000 × g). Final assay concentrations were as follows: TNKS2 ARC5 (20 μM); fragment (500 μM); SYPRO Orange dye (5×); DMSO (5% v/v) in a total volume of 5 μL. Peptide control wells (3BP2 TBM 16-mer, 200 μM, sequence LPHLQRSPPDGQSFRSW with C-terminal tryptophan added for photometric concentration measurements, the N-terminus acetylated and the C-terminus amide-capped) were plated in triplicate, and there were 12 blank wells per plate, with DMSO only (250 nL, 5% v/v). Melt curves were recorded from 20–95 °C, with the temperature ramped by 0.5 °C every 15 s. Data were analysed using Vortex (Dotmatics) software and melting temperatures calculated from both the inflection point and the maximum peak of 1st-derivative data. Data points were excluded if the melt curve was poor, i.e., if there was no fluorescence signal above baseline, high fluorescence intensity throughout, or if the melt curve was shallow (<1000 rfu difference between baseline and peak maximum). The unbound melting temperature was determined from the mean of 12 reference melting curves, with 5% DMSO only. The change in melting temperature (ΔTm) was calculated by subtracting the mean Tm, 0 from Tm, compound. Compounds were tested in duplicate, and fragments were defined as hits if they gave a ΔTm outwith 2 σ from the mean in one or both replicates.
For the experiment shown in Fig. 2A, ARC and 3BP2 TBM peptide concentrations were 20 and 200 μM, respectively, in 50 mM HEPES-NaOH pH 7.5, 100 mM NaCl, 2 mM TCEP and a total volume of 25 μL. SYPRO Orange was added at 5×. Data were recorded from 4–95 °C, with the temperature ramped by 0.5 °C every 15 s, using a CFX384 thermal cycler (Bio-Rad). […]
For orientation: DSF heats the sample and reads unfolding from a dye or from intrinsic fluorescence.

The target in a further assay is T2, TNKS2 ARC4 (Homo sapiens, UniProt Q9H2K2).
T2 construct: The cell was filled with TNKS2 ARC4 (488–649); His6-GST; made in house; host or cells: E. coli
T2 sequence (Q9H2K2 488-649): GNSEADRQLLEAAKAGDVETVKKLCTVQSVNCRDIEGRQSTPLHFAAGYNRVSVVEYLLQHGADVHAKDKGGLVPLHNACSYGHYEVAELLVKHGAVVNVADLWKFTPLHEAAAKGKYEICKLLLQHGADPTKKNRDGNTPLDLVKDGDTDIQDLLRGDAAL
Nature of the assay: WaterLOGSY NMR assay. It counts as binding. The following applies: for waterLOGSY: wild-type TNKS2 ARC4 20 μM, negative NOE = binder. As for the experimental part: We next sought close structural analogues of hit fragments 3 and 5 to gain early insights into structure-activity relationships (SAR) and binding modes of hit fragments. We initially tested the analogues using both relaxation-edited and waterLOGSY NMR assays against TNKS2 ARC4 (Table 1), followed by protein-observed NMR if binding was detected in both ligand-observed NMR experiments.
Fragments were dispensed in duplicate into a 384-well plate (250 nL, 100 mM stock in DMSO). Wells were backfilled with DMSO (2.25 μL). Tankyrase ARC protein (47.5 μL in 25 mM HEPES-NaOH pH7.5, 100 mM NaCl, 2 mM TCEP, 10% D2O; 20 μM final protein concentration in the assay) was added to the samples containing protein; buffer only (47.5 μL) was added to the compound-only samples. Solutions were transferred to 1.7 mm NMR tubes using a Gilson liquid handling system. ^1H NMR spectra were recorded, with the DMSO signal dampened. The bulk water signal at 4.7 ppm was selectively inverted. Data were processed using Bruker Topspin 3.14[66].

Consider three compounds from paper PMC6911004, “Fragment-based screening identifies molecules targeting the substrate-binding ankyrin repeat domains of tankyrase” (Scientific Reports, 2019).

Entries after “also recorded” stand apart in the source; their conditions may differ.

T1 sequence (Q9H2K2 641-800): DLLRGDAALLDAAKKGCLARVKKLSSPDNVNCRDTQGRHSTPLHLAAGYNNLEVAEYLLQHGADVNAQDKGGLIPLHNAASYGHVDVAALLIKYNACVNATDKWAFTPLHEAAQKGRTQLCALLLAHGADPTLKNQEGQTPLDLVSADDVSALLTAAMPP

Consider `O=C(NCc1ccco1)c1ccc(F)cc1` [compound 3], for which the “ΔTm (°C)” value at TNKS2 ARC5 (method of Tm analysis not stated) was determined as 2.5 °C. Moreover, the waterLOGSY result on TNKS2 ARC4 was “negative NOE; also recorded: binding”.
For the compound `O=C(NCc1ccc(F)cc1)c1ccc2nccnc2c1` [compound 5], on TNKS2 ARC5 (screen, biphasic melt curves), the “ΔTm calculated by the inflection point method” value is 1.6 °C. On TNKS2 ARC5 (screen, second peak used to calculate Tm), the “ΔTm calculated by the 1st derivative method” value is 8.1 °C. At TNKS2 ARC4, the “waterLOGSY: competition with 3BP2 TBM peptide” value is “peptide competition” and the waterLOGSY entry is recorded as “negative NOE; also recorded: binding”.
`O=C(NCc1ccco1)c1ccc2nccnc2c1` [compound 9]: the “waterLOGSY, compound alone” value at TNKS2 ARC4 (no protein added) is reported as “no NOE”. Besides, the waterLOGSY entry on TNKS2 ARC4 was “one peak has negative NOE; also recorded: binding; also recorded: negative NOE signal”.
